Where a name gives a salt, the structure may show the parent alone.
Target: GCN2 (Homo sapiens, UniProt Q9P2K8)
Test: GCN2 enzyme assay (TR-FRET Lanthascreen, GFP-eIF2alpha phosphorylation)
Format: biochemical
Settings: 10 μM ATP, 80 nM GFP-eIF2a, 30 nM GCN2
Source text: GCN2: Assay Principle & Conditions
This assay can quantificate the activity of the serin kinase GCN2 (general control non-derepressible-2).
This kinase is involved in the stress metabolism of cells. It is activated upon starvation (amino acid depletion). Its natural substrate is eIF2a (eukaryotic initiation factor 2 alpha subunit), a translation factor, which gets activated (phosphorylated) by GCN2 in case of an amino acid bottleneck in the cells. This in turn leads to a halt of the protein synthesis. Inhibition of GCN2 results in stopping this mechanism: The cell can not stop protein production upon “starvation” stress.
The assay is run in two steps: the enzymatic reaction and the detection step. In the first step GCN2 is incubated with 10 μM ATP and 80 nM of the GFP-labelled substrate eIF2alpha at room temperature.
The enzymatic reaction is stopped by addition of EDTA. The amount of phosphorylated eIF2alpha is determined by TR-FRET (Lanthascreen): A complex is formed consisting of antibody and GFP labelled phospho-eIF2a, which allows a FRET upon exitation at 340 nm.
Final Concentrations in the Enzymatic Reaction

Sequence of GCN2 (Q9P2K8 whole entry, species assumed): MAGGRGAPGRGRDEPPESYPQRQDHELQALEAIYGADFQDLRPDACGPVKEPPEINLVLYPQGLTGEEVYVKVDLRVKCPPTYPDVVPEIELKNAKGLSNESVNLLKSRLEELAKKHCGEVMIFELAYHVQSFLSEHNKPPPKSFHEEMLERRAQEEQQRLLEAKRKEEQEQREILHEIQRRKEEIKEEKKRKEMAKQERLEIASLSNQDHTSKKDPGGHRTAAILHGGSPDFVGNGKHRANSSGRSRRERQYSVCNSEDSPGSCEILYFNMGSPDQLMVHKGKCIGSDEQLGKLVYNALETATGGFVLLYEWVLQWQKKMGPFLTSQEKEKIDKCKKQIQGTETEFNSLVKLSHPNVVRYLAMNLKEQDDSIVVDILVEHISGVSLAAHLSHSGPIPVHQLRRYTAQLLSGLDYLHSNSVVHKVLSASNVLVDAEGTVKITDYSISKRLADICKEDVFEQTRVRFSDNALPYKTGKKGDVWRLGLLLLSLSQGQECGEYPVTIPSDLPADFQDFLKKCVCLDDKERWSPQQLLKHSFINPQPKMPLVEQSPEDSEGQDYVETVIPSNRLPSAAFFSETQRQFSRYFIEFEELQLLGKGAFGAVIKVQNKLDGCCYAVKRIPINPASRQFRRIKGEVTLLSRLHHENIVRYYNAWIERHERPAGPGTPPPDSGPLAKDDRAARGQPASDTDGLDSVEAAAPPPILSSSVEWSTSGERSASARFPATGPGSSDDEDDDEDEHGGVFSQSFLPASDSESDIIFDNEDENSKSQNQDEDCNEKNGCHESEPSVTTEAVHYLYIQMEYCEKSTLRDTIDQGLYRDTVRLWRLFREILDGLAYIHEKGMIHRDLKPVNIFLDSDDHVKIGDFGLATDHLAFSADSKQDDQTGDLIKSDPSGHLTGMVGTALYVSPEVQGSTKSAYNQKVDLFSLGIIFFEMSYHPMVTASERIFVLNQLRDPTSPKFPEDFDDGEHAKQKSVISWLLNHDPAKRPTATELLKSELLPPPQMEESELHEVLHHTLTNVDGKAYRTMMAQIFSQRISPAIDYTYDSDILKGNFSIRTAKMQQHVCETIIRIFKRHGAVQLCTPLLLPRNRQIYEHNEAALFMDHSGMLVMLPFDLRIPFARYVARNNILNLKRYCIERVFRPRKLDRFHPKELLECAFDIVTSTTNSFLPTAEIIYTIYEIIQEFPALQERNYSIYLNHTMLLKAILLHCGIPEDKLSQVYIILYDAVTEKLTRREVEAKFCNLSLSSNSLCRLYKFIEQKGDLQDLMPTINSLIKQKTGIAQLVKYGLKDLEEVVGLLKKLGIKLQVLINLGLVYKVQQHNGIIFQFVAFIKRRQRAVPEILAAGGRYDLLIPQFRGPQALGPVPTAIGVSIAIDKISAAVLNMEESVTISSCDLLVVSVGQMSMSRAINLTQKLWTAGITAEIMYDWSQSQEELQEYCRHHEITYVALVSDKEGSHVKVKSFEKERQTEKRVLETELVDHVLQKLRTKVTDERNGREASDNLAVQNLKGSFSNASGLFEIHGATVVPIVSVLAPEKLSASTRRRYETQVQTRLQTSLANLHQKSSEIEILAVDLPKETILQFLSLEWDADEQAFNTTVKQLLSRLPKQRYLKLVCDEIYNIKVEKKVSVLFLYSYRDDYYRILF

Structure (SMILES) | IC50 [nM]
COc1ccc(-n2nnc3cnc(NC4CC(C)(C)NC(C)(C)C4)nc32)cc1 [A17, [3-(4-methoxy-phenyl)-3H-[1,2,3]triazolo[4,5-d]pyrimidin-5-yl]-(2,2,6,6-tetramethyl-piperidin-4-yl)-amine] | 5000 to 10000
COc1ccc(-n2nnc3cnc(NC4CCN(C)CC4)nc32)cc1 [A18, [3-(4-methoxy-phenyl)-3H-[1,2,3]triazolo[4,5-d]pyrimidin-5-yl]-(1-methyl-piperidin-4-yl)-amine] | 1000 to 5000
COc1ccc(-n2nnc3cnc(NC4C5CN(C)CC54)nc32)cc1 (stereo not shown) [A19, [3-(4-methoxy-phenyl)-3H-[1,2,3]triazolo[4,5-d]pyrimidin-5-yl]-(3-methyl-3-aza-bicyclo[3.1.0]hex-6-yl)-amine] | 5000 to 10000
COc1ccc(-n2nnc3cnc(NC4CC(=O)N(C)C4)nc32)cc1 (stereo not shown) [A20, 4-[3-(4-methoxy-phenyl)-3H-[1,2,3]triazolo[4,5-d]pyrimidin-5-ylamino]-1-methyl-pyrrolidin-2-one] | 1000 to 5000
COc1ccc(-n2nnc3cnc(N[C@H]4CC[C@@H](O)CC4)nc32)cc1 [A26, cis-4-[3-(4-methoxy-phenyl)-3H-[1,2,3]triazolo[4,5-d]pyrimidin-5-ylamino]-cyclohexanol] | < 1000
COc1ccc(-n2nnc3cnc(N[C@H]4CCOC4)nc32)cc1 [A28, [3-(4-methoxy-phenyl)-3H-[1,2,3]triazolo[4,5-d]pyrimidin-5-yl]-(S)-tetrahydrofuran-3-yl-amine] | < 1000
COc1ccc(-n2nnc3cnc(N[C@H]4C[C@@H](NC(=O)OC(C)(C)C)C4)nc32)cc1 [A30, {cis-3-[3-(4-methoxy-phenyl)-3H-[1,2,3]triazolo[4,5-d]pyrimidin-5-ylamino]-cyclobutyl}-carbamic acid tert-butyl ester] | < 1000
COc1ccc(-n2nnc3cnc(N[C@H]4C[C@@H](N)C4)nc32)cc1 [A31, cis-N-[3-(4-methoxy-phenyl)-3H-[1,2,3]triazolo[4,5-d]pyrimidin-5-yl]-cyclobutane-1,3-diamine hydrochloride] | 1000 to 5000
COc1ccc(-n2nnc3cnc(N[C@H]4C[C@H](NC(=O)OC(C)(C)C)C4)nc32)cc1 [A32, {trans-3-[3-(4-methoxy-phenyl)-3H-[1,2,3]triazolo[4,5-d]pyrimidin-5-ylamino]-cyclobutyl}-carbamic acid tert-butyl ester] | < 1000
COc1ccc(-n2nnc3cnc(N[C@H]4CC[C@H](CNC(=O)OC(C)(C)C)CC4)nc32)cc1 [A33, {4-[3-(4-methoxy-phenyl)-3H-[1,2,3]triazolo[4,5-d]pyrimidin-5-ylamino]-cyclohexylmethyl}-carbamic acid tert-butyl ester] | 1000 to 5000
COc1ccc(-n2nnc3cnc(NC4CCN(C(=O)OC(C)(C)C)CC4)nc32)cc1 [A34, 4-[3-(4-methoxy-phenyl)-3H-[1,2,3]triazolo[4,5-d]pyrimidin-5-ylamino]-piperidine-1-carboxylic acid tert-butyl ester] | < 1000

Next, values leading:

IC50 [nM] | Structure (SMILES)
< 1000 | CCNc1ncc2nnn(-c3ccc(OC)cc3)c2n1 [A16, ethyl-[3-(4-methoxy-phenyl)-3H-[1,2,3]triazolo[4,5-d]pyrimidin-5-yl]-amine]
< 1000 | COc1ccc(-n2nnc3cnc(NC4CCC4)nc32)cc1 [A21, cyclobutyl-[3-(4-methoxy-phenyl)-3H-[1,2,3]triazolo[4,5-d]pyrimidin-5-yl]-amine]
< 1000 | COc1ccc(-n2nnc3cnc(NC4CCc5[nH]ncc5C4)nc32)cc1 (stereo not shown) [A23, [3-(4-methoxy-phenyl)-3H-[1,2,3]triazolo[4,5-d]pyrimidin-5-yl]-(4,5,6,7-tetrahydro-1H-indazol-5-yl)-amine]
< 1000 | COc1ccc(-n2nnc3cnc(N[C@H]4C[C@H](O)C4)nc32)cc1 [A24, trans-3-[3-(4-methoxy-phenyl)-3H-[1,2,3]triazolo[4,5-d]pyrimidin-5-ylamino]-cyclobutanol]
< 1000 | COc1ccc(-n2nnc3cnc(N[C@H]4C[C@@H](O)C4)nc32)cc1 [A25, cis-3-[3-(4-methoxy-phenyl)-3H-[1,2,3]triazolo[4,5-d]pyrimidin-5-ylamino]-cyclobutanol]
